Experimental data reported in PMC7993260 (Clinical and Translational Science, 2020).
Read-outs that look alike come from different tables or passages of the source.

Key:
OATP2B1 = conditions: in vitro; cited from earlier work
OATP1B1 = conditions: in vitro; cited from earlier work
OATP1A2 = conditions: in vitro; cited from earlier work
[1] = type: in vivo, human; conditions: for A e, amount excreted unchanged into urine over 24 hours / CL renal / AUC(0-t) / AUC(0-inf): geometric mean; for CL renal: plasma and urine, CLrenal; for AUC(0-inf): AUC0–∞
[2] = Acute hemodynamic response to lisinopril; type: in vivo, human
[3] = cited from earlier work
PEPT1 = conditions: Caco-2 cells; cited from earlier work
[4] = stated as similar for lisinopril and nadolol

Question: For O=C(O[C@@H]1Cc2c(O)cc(O)cc2O[C@@H]1c1cc(O)c(O)c(O)c1)c1cc(O)c(O)c(O)c1 [EGCG, (–)‐epigallocatechin gallate], which “inhibition of OATP2B1 activity” value (OATP2B1) is on record?
Answer: Its value is “have been shown to inhibit”.

Question: And the “inhibition of OATP1B1 activity” value (OATP1B1)?
Answer: The value was “have been shown to inhibit”.

Question: What about the “inhibition of OATP1A2 activity” value (OATP1A2) of the same molecule?
Answer: Its value is “have been shown to inhibit”.

Question: For NCCCC[C@H](N[C@@H](CCc1ccccc1)C(=O)O)C(=O)N1CCC[C@H]1C(=O)O [lisinopril], which “decrease in AUC0-24 in the GTE phase compared with control phase” value ([1]; GTE vs control, P < 0.001) is on record?
Answer: The value was 69%.

Question: And the “decrease in AUC0–∞ in the GTE phase compared with control phase” value ([1]; GTE vs control, P < 0.001)?
Answer: Its value is 67%.

Question: What about the “decrease in C max in the GTE phase compared with control phase” value ([1]; GTE vs control, P < 0.001) of the same molecule?
Answer: Its value is 71%.

Question: And the “A e, amount excreted unchanged into urine over 24 hours” value ([1]; GTE)?
Answer: The value was 0.54 mg.

Question: And the CL renal ([1]; both, human, po, 10 mg, GTE)?
Answer: Its CL renal is 56.9 mL/min.

Question: What about the CL renal ([1]; both, human, po, 10 mg, control (water)) of the same molecule?
Answer: The CL renal was 57.7 mL/min.

Question: And the Tmax ([1]; both, human, plasma, po, 10 mg)?
Answer: Its Tmax is 6 h.

Question: What about the AUC(0-t) ([1]; both, human, plasma, po, 10 mg, AUC0–24, GTE) of the same molecule?
Answer: The AUC(0-t) was 157 ng·h/mL.

Question: What about the AUC(0-t) ([1]; both, human, plasma, po, 10 mg, AUC0–24, control (water)) of the same molecule?
Answer: The AUC(0-t) was 504 ng·h/mL.

Question: What about the AUC(0-inf) ([1]; both, human, plasma, po, 10 mg, GTE) of the same molecule?
Answer: The AUC(0-inf) was 186 ng·h/mL.

Question: And the AUC(0-inf) ([1]; both, human, plasma, po, 10 mg, control (water))?
Answer: Its AUC(0-inf) is 554 ng·h/mL.

Question: And the “A e, amount excreted unchanged into urine over 24 hours” value ([1]; control (water))?
Answer: The value was 1.75 mg.

Question: And the “A e GMR (GTE/control)” value ([1]; geometric mean ratio GTE/control)?
Answer: Its value is 0.307.

Question: What about the adverse events ([1]; ten subjects who completed the study, both phases) of the same molecule?
Answer: The adverse events was “no adverse events”.

Question: What about the DBP ([2]; GTE phase, 6 hours after 10 mg oral lisinopril, mean ± SD, baseline 68 ± 10 mmHg) of the same molecule?
Answer: The DBP was 55 ± 4 mmHg.

Question: What about the “mean maximum decrease of DBP from baseline” value ([2]; both phases, at 6 hours after the administration) of the same molecule?
Answer: The value was “about 20%”.

Question: What about the “SBP and PR, control vs GTE phases” value ([2]; single oral dose 10 mg lisinopril) of the same molecule?
Answer: Its value is “no differences”.

Question: And the oral bioavailability [3]?
Answer: The oral bioavailability was 29%.

Question: And the oral bioavailability [3, 4]?
Answer: The oral bioavailability was “ca. 30%”.

Question: With (–)‐epicatechin gallate as the molecule, how does the “inhibition of OATP2B1 activity” value (OATP2B1) read?
Answer: Its value is “have been shown to inhibit”.

Question: And the “inhibition of OATP1B1 activity” value (OATP1B1)?
Answer: Its value is “have been shown to inhibit”.

Question: What about the “inhibition of uptake transport of glycyl-sarcosine, a typical substrate of PEPT1” value (PEPT1) of the same molecule?
Answer: The value was “not inhibiting”.

Question: What about the “inhibition of OATP1A2 activity” value (OATP1A2) of the same molecule?
Answer: The value was “have been shown to inhibit”.

Question: Which oral bioavailability [3, 4] does the source give for CC(C)(C)NCC(O)COc1cccc2c1CC(O)C(O)C2 (stereo not drawn) [nadolol] here?
Answer: The oral bioavailability was “ca. 30%”.
